Reference: patent US7667052B2 (Eisai R&D Management Co., Ltd., priority 2003, dated 2010)
Like-named read-outs stand apart in the source and are kept apart here.

How the values were obtained:
[1] = system: VEGF production in U251 human glioma cell; test: VEGF production suppressing action under low oxygen, ELISA; format: cell-based; details: for VEGF production suppressing action: IC50: U251, low oxygen (2% O2) incubator 18 hours
Method: U251 human glioma cell cultured in DULBECCO-modified eagle medium (DMEM; manufactured by SIGMA Co., Ltd.) containing 10% fetal calf serum, penicillin (100 unit/ml) and streptomycin (100 μg/ml) was dispensed in 96-well plates by 4×10^4 cells/well. After culturing at 37° C. overnight in a CO2 incubator (5% CO2), the media were removed, and 180 μl of the above-mentioned incubation solution was charged. After adding 20 μL of the above-mentioned incubation solution containing the test compound diluted with 3-fold succession, they were incubated in a low oxygen (2% O2) incubator for 18 hours. The supernatants thereof were measured by an ELISA kit (Immunobiology Research Institute).
Concentration at which the amount of VEGF expressed by low oxygen stimulation was suppressed to 50% (IC50 value) was determined and results are shown in Table 9. […] The activities of 11107F and 11107G were very weak.

[2] = system: transcription from VEGF promoter; test: VEGF transcription-suppressing activity, VEGF-PLAP reporter in U251/1-8 cell; format: cell-based; details: Homo sapiens, U-251, U251/1-8 cell, PLAP activity, low oxygen 18 hours
In short: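 U251 glioma clone stably carrying a ~2.3 kb human VEGF promoter–secreted PLAP reporter, 4×10^4 cells/well, exposed to 3-fold dilutions of compound for 18 h under low oxygen. Supernatant PLAP read by chemiluminescence at pH 10.0; IC50 = 50% suppression, normoxia 0%, hypoxia 100%.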

[3] = Solubility (physico-chemical properties of the 11107 analogues); details: in dimethylsulfoxide, pyridine, methanol, acetone and water
[4] = read-out: IC50 values of VEGF transcription-suppressing activity (range given)
[5] = read-out: VEGF transcription suppressing activity (IC50: nM)

SMILES | VEGF production suppressing action: IC50 [1] [mg/L] | IC50 [2, 4] [nM] | Solubility [3] | IC50 [2, 5] [nM] | VEGF production suppression, in words ([1]; U251, low oxygen stimulation)
CCC(O)C(C)C1OC1CC(C)/C=C/C=C(\C)C1OC(=O)CC(O)CCC(C)(O)C(O)/C=C/C1C (centres unmarked) [11107 A] | 0.111 |  |  |  | 
CCC(=O)C(C)C1OC1CC(C)/C=C/C=C(\C)C1OC(=O)CC(O)CCC(C)(O)C(OC(C)=O)/C=C/C1C (centres unmarked) [11107 C] | 0.003 |  |  |  | 
CCC(O)C(C)C1OC1CC(C)(O)/C=C/C=C(\C)C1OC(=O)CC(O)CCC(C)(O)C(OC(C)=O)/C=C/C1C (centres unmarked) [11107 D] | 0.0032 |  |  |  | 
CCC(O)C(C)(O)C1OC1CC(C)/C=C/C=C(\C)C1OC(=O)CC(O)CCC(C)(O)C(OC(C)=O)/C=C/C1C (centres unmarked) [11107 E] | 0.0363 |  |  |  | 
CCC(O)C(C)C1OC1CC(C)/C=C/C=C(\C)C1OC(=O)CC(O)CCC(O)(COC(C)=O)C(O)/C=C/C1C (centres unmarked) [11107AB] |  | 1 to 100 | soluble in dimethylsulfoxide, pyridine, methanol and acetone, and slightly soluble in water |  | 
CC(=O)OC1/C=C/C(C)C(/C(C)=C/C=C/C(C)C/C=C/C(C)C(O)C(C)O)OC(=O)CC(O)CCC1(C)O (centres unmarked) [11107AJ] |  | 1 to 100 | soluble in dimethylsulfoxide, pyridine, methanol and acetone, and slightly soluble in water |  | 
CCC(=O)C(C)C1OC1CC(C)/C=C/C=C(\C)C1OC(=O)CC(O)/C=C/C(C)(O)C(OC(C)=O)/C=C/C1C (centres unmarked) [11107AL] |  | 1 to 100 | soluble in dimethylsulfoxide, pyridine, methanol and acetone, and slightly soluble in water |  | 
CCC(O)C(C)C1OC1CC(C)/C=C/C=C(\C)C1OC(=O)CC(O)CCC2(CO2)C(OC(C)=O)/C=C/C1C (centres unmarked) [11107AM] |  | 1 to 100 | soluble in dimethylsulfoxide, pyridine, methanol and acetone, and slightly soluble in water | 2.6 | 
CCC(O)C(C)C1OC1CC(C)/C=C/C=C(\C)C1OC(=O)CC(O)/C=C/C2(CO2)C(OC(C)=O)/C=C/C1C (centres unmarked) [11107AN] |  | 1 to 100 | soluble in dimethylsulfoxide, pyridine, methanol and acetone, and slightly soluble in water |  | 
CCC(O)C(C)C1OC1CC(C)/C=C/C=C(\C)C1OC(=O)CC(O)/C=C/C(C)(OC(C)=O)C(OC(C)=O)/C=C/C1C (centres unmarked) [11107AP] |  | 1 to 100 | soluble in dimethylsulfoxide, pyridine, methanol and acetone, and slightly soluble in water |  | 
CCC(O)C(C)C1OC1CC(C)/C=C/C=C(\C)C1OC(=O)CC(O)CCC(C)(OC(C)=O)C(OC(C)=O)/C=C/C1C (centres unmarked) [11107AQ] |  | 1 to 100 | soluble in dimethylsulfoxide, pyridine, methanol and acetone, and slightly soluble in water |  | 
CC(=O)OC1/C=C/C(C)C(/C(C)=C/C=C/C(C)CC2OC2C(C)C(O)C(C)O)OC(=O)CC(O)CCC1(C)O (centres unmarked) [11107AW] |  | 1 to 100 | soluble in dimethylsulfoxide, pyridine, methanol and acetone, and slightly soluble in water |  | 
CCC(O)C(C)C1OC1C(O)C(C)/C=C/C=C(\C)C1OC(=O)CC(O)/C=C/C(C)(O)C(OC(C)=O)/C=C/C1C (centres unmarked) [11107AX] |  | 1 to 100 | soluble in dimethylsulfoxide, pyridine, methanol and acetone, and slightly soluble in water |  | 
CCC1OC1C(O)C(C)/C=C/C=C(\C)C1OC(=O)CC(O)CCC(C)(O)C(OC(C)=O)/C=C/C1C (centres unmarked) [11107AY] |  | 1 to 100 | soluble in dimethylsulfoxide, pyridine, methanol and acetone, and slightly soluble in water |  | 
CC(=O)OC1/C=C/C(C)C(/C(C)=C/C=C/C(C)CC2OC2C(C)C(O)C(C)O)OC(=O)CC(O)CC(O)C1(C)O (centres unmarked) [11107AZ] |  | 1 to 100 | soluble in dimethylsulfoxide, pyridine, methanol and acetone, and slightly soluble in water |  | 
CCC1OC1(C)C(O)C(C)/C=C/C=C(\C)C1OC(=O)CC(O)CCC(C)(O)C(OC(C)=O)/C=C/C1C (centres unmarked) [11107BG] |  | 1 to 100 | soluble in dimethylsulfoxide, pyridine, methanol and acetone, and slightly soluble in water |  | 
CCC(O)C(C)C1OC1CC(C)/C=C/C=C(\C)C1OC(=O)CC(O)CC(=O)C(C)(O)C(OC(C)=O)/C=C/C1C (centres unmarked) [11107BH] |  | 1 to 100 | soluble in dimethylsulfoxide, pyridine, methanol and acetone, and slightly soluble in water | 2.6 | 
CCC(O)C(C)/C=C/CC(C)/C=C/C=C(\C)C1OC(=O)CC(O)CCC(C)(O)C(OC(C)=O)/C=C/C1C (centres unmarked) [11107BI] |  | 1 to 100 | soluble in dimethylsulfoxide, pyridine, methanol and acetone, and slightly soluble in water |  | 

SMILES | VEGF production suppressing action: IC50 [1] [mg/L] | IC50 [2, 4] [nM] | Solubility [3] | IC50 [2, 5] [nM] | VEGF production suppression, in words ([1]; U251, low oxygen stimulation)
CCC(O)C(C)(O)C1OC1CC(C)/C=C/C=C(\C)C1OC(=O)CC(O)CCC(C)(O)C(OC(C)=O)/C=C/C1C (centres unmarked) [11107E] |  | 1 to 100 | soluble in dimethylsulfoxide, pyridine, methanol and acetone, and slightly soluble in water |  | 
CCC(O)C(C)C1OC1CC(C)(O)/C=C/C=C(\C)C1OC(=O)CC(O)CCC(C)(O)C(O)/C=C/C1C (centres unmarked) [11107F] |  |  |  |  | very weak
CCC(=O)OC1/C=C/C(C)C(/C(C)=C/C=C/C(C)CC2OC2C(C)C(O)CC)OC(=O)CC(O)CCC1(C)O (centres unmarked) [11107I] |  | 1 to 100 | soluble in dimethylsulfoxide, pyridine, methanol and acetone, and slightly soluble in water |  | 
CC(=O)OC1/C=C/C(C)C(/C(C)=C/C=C/C(C)CC2OC2C(C)C(C)O)OC(=O)CC(O)CCC1(C)O (centres unmarked) [11107J] |  | 1 to 100 | soluble in dimethylsulfoxide, pyridine, methanol and acetone, and slightly soluble in water | 5.9 | 
CCC(O)C(C)C1OC1CC(C)/C=C/C=C(\C)C1OC(=O)CC(O)CC(O)C(C)(O)C(OC(C)=O)/C=C/C1C (centres unmarked) [11107K] |  | 1 to 100 | soluble in dimethylsulfoxide, pyridine, methanol and acetone, and slightly soluble in water | 2.7 | 
CCC(O)C(C)C1OC1CC(C)/C=C/C=C(\C)C1OC(=O)CC(O)CC(OC(C)=O)C(C)(O)C(OC(C)=O)/C=C/C1C (centres unmarked) [11107L] |  | 1 to 100 | soluble in dimethylsulfoxide, pyridine, methanol and acetone, and slightly soluble in water |  | 
CCC(O)C(C)C1OC1CC(C)/C=C/C=C(\C)C1OC(=O)CC(OC(C)=O)CCC(C)(O)C(OC(C)=O)/C=C/C1C (centres unmarked) [11107M] |  | 1 to 100 | soluble in dimethylsulfoxide, pyridine, methanol and acetone, and slightly soluble in water |  | 
CCC(O)C(C)C1OC1CC(C)/C=C/C=C(\C)C1OC(=O)CC(O)CCC(O)(COC(C)=O)C(OC(C)=O)/C=C/C1C (centres unmarked) [11107N] |  | 1 to 100 | soluble in dimethylsulfoxide, pyridine, methanol and acetone, and slightly soluble in water |  | 
CC(=O)OC1/C=C/C(C)C(/C(C)=C/C=C/C(C)CC(O)/C=C(\C)C(=O)C(C)O)OC(=O)CC(O)CCC1(C)O (centres unmarked) [11107Q] |  | 1 to 100 | soluble in dimethylsulfoxide, pyridine, methanol and acetone, and slightly soluble in water |  | 
CC(=O)OC1/C=C/C(C)C(/C(C)=C/C=C/C(C)CC2OC2C(C)O)OC(=O)CC(O)CCC1(C)O (centres unmarked) [11107R] |  | 1 to 100 | soluble in dimethylsulfoxide, pyridine, methanol and acetone, and slightly soluble in water |  | 
CCC(O)C(C)C1OC1CC(C)/C=C/C=C(\C)C1OC(=O)CC(O)/C=C/C(C)(O)C(O)/C=C/C1C (centres unmarked) [11107S] |  |  | soluble in dimethylsulfoxide, pyridine, methanol and acetone, and slightly soluble in water |  | 
CCC(O)CC1OC1CC(C)/C=C/C=C(\C)C1OC(=O)CC(O)CCC(C)(O)C(OC(C)=O)/C=C/C1C (centres unmarked) [11107T] |  | 1 to 100 | soluble in dimethylsulfoxide, pyridine, methanol and acetone, and slightly soluble in water |  | 
CCC(O)C(C)C1OC1CC/C=C/C=C(\C)C1OC(=O)CC(O)CCC(C)(O)C(OC(C)=O)/C=C/C1C (centres unmarked) [11107U] |  | 1 to 100 | soluble in dimethylsulfoxide, pyridine, methanol and acetone, and slightly soluble in water |  | 
CCC(O)C(C)C1OC1CC(C)/C=C/C=C(\C)C1OC(=O)CC(O)CCC(C)(O)CCC(=O)C1C (centres unmarked) [11107V] |  |  | soluble in dimethylsulfoxide, pyridine, methanol and acetone, and slightly soluble in water |  | 
CCC(O)C(C)C1OC1CC(C)/C=C/C=C/C1OC(=O)CC(O)CCC(C)(O)C(OC(C)=O)/C=C/C1C (centres unmarked) [11107W] |  | 1 to 100 | soluble in dimethylsulfoxide, pyridine, methanol and acetone, and slightly soluble in water |  | 
CCC(O)C(C)C1OC1CC(C)/C=C/C=C(\C)C1OC(=O)C(C)C(O)CCC(C)(O)C(OC(C)=O)/C=C/C1C (centres unmarked) [11107X] |  |  | soluble in dimethylsulfoxide, pyridine, methanol and acetone, and slightly soluble in water |  | 
CCC(O)C(C)C1OC1CC(C)/C=C/C=C(\C)C1OC(=O)CC(O)CC(O)C(C)C(OC(C)=O)/C=C/C1C (centres unmarked) [11107Y] |  | 1 to 100 | soluble in dimethylsulfoxide, pyridine, methanol and acetone, and slightly soluble in water |  | 
CCC(O)C(C)C1OC1CC(C)/C=C/C=C(\C)C1C/C=C/C(OC(C)=O)C(C)(O)CCC(O)CC(=O)O1 (centres unmarked) [11107Z] |  | 1 to 100 | soluble in dimethylsulfoxide, pyridine, methanol and acetone, and slightly soluble in water |  | 
